Data from patent publication US20100178259A1, “REDUCING FIBROSIS USING MATRIX METALLOPROTEINASE INHIBITORS” (The Regents of The University of Michigan, priority 2009, published 2010).
Entries after “also recorded” stand apart in the source; their conditions may differ.

Tests used:
MMP-1 = biological target: T1, MMP-1 (Homo sapiens, UniProt P03956); settings: in vitro; cited from earlier work
T1 sequence (P03956 100-469): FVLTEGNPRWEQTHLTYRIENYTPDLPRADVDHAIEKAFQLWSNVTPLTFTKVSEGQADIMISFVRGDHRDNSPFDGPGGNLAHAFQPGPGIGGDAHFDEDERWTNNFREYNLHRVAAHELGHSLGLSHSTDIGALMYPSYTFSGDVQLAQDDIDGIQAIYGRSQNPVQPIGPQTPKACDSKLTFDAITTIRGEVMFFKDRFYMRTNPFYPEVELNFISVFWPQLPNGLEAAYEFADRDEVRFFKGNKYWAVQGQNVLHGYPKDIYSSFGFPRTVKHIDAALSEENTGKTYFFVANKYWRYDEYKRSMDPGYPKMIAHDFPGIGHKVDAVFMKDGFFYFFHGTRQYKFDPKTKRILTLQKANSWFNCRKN

MMP-2 = biological target: T2, MMP-2 (Homo sapiens, UniProt P08253); settings: in vitro; cited from earlier work
T2 sequence (P08253 110-660): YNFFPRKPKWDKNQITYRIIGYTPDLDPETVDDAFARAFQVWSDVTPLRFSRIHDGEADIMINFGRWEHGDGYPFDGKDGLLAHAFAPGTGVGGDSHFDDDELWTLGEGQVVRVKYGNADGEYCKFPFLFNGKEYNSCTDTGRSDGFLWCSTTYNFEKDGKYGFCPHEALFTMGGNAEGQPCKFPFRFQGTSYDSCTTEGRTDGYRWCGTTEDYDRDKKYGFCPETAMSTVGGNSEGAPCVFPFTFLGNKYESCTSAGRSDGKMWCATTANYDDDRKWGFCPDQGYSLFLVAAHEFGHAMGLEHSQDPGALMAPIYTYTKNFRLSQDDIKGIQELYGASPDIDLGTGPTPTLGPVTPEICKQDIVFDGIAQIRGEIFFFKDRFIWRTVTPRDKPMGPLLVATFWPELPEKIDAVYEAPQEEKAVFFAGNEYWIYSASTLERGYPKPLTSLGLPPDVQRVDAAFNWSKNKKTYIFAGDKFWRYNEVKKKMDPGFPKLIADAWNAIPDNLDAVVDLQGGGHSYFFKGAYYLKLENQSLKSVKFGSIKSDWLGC

[1] = system: HRS/J hairless mice skin exposed to UV irradiation; experiment: UV irradiation sunburn/scarring in hairless mice, topical treatment, skin cross-section histology; format: in vivo, mouse; settings: UV 200-400 mJ/square cm, topical 1% MMI270 in 70% ethanol (95%) and 30% propylene glycol daily after UV exposure, compared to untreated irradiated skin (FIG. 2)
Procedure: The following experiments illustrate embodiments of the present technology. Experimental mice (HRS/J hairless mice) are treated with UV irradiation at a dosage that results in sunburn and consequent scarring of the skin. UV exposure includes daily exposure (Mon-Fri), or 3× per week (Mon, Wed, Fri), at 200-400 mJ/square cm, until scarring occurs, typically after 2-3 weeks. The UVB/A2 source is FS tubes filtered with Kodacel to remove wavelengths below 290 nm. Non-irradiated mice serve as non-wounded controls.
FIG. 1 is a photograph of a tissue cross-section of non-irradiated mouse skin. The outer surface of the skin includes a layer 110 of dead skin cells overtop the epidermis 120. Located beneath the epidermis 120, is a region comprising extracellular matrix 130, which includes collagen and other proteins. A layer of fat cells 140 underlies the extracellular matrix 130 and is followed by muscle 150. Hair follicles 160 can be seen embedded within the extracellular matrix 130 region.
FIG. 2 is a photograph of a tissue cross-section of mouse skin that was exposed to UV irradiation to cause a burn and that was not treated with MMP inhibitor. Morphology of the skin changes in response to the burn wound which can subsequently form into a scar. The outer skin surface and layer 210 of dead skin cells overlies a thickened epidermis 220 followed by a thickened region of extracellular matrix 230. […]

MMP-3 = MMP-3 (Homo sapiens, UniProt P08254); settings: in vitro; cited from earlier work
MMP-9 = MMP-9 (Homo sapiens, UniProt P14780); settings: in vitro; cited from earlier work
Sequence of MMP-9 (P14780 94-707, species assumed): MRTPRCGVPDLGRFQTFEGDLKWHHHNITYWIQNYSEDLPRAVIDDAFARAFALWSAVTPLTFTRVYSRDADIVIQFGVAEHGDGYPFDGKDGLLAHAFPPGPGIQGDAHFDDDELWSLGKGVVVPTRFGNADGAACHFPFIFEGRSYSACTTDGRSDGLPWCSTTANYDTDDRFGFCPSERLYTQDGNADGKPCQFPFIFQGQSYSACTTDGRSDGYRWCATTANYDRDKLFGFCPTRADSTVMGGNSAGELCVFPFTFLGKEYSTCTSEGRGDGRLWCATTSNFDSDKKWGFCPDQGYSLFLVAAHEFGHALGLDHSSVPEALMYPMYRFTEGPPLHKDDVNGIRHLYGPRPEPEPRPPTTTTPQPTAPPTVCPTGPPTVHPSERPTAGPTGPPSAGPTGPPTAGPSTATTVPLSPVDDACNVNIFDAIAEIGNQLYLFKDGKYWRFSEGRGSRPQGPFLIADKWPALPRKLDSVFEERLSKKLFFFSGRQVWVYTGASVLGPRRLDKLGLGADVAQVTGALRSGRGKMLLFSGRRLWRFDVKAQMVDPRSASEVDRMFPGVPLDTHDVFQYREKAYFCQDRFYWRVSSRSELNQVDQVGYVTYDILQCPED

Sequence of MMP-3 (P08254 100-477, species assumed): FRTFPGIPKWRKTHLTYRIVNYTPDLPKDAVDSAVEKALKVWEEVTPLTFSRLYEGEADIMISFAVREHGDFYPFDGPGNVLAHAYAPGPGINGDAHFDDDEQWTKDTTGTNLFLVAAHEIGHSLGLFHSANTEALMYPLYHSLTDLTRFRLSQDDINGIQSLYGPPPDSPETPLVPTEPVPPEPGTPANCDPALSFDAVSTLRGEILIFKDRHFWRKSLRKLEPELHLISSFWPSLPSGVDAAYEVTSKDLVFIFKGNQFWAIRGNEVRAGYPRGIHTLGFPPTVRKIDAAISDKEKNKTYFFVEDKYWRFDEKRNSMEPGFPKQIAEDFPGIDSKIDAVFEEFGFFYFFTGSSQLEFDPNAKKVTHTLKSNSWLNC

SMILES: COc1ccc(S(=O)(=O)N(Cc2cccnc2)[C@@H](C(=O)NO)C(C)C)cc1 [MMI270, N-hydroxy-2(R)-[[4-methoxybenzenesulfonyl]-(3-picolyl)amino]-3-methylbutanamide]
- concentration inhibiting MMP-1 activity (MMP-1): nanomolar concentrations
- concentration inhibiting MMP-2 activity (MMP-2): nanomolar concentrations
- expansion and thickening of the epidermis and extracellular matrix [1]: less expansion and thickening of the epidermis and extracellular matrix; also recorded: decrease in thickness of the extracellular matrix
- concentration inhibiting MMP-3 activity (MMP-3): nanomolar concentrations
- concentration inhibiting MMP-9 activity (MMP-9): nanomolar concentrations
